The source of these data is article PMC11003478, “Spiro heterocycles bearing piperidine moiety as potential scaffold for antileishmanial activity: synthesis, biological evaluation, and in silico studies” (Journal of Enzyme Inhibition and Medicinal Chemistry, 2022).

Where “and” joins values, the source holds several entries; their conditions need not be identical. Equal entries are not always repeated. Where two headings read alike, the source gives them in different places.

Series [1] concerns Leishmania. The arrangement: method as in PMID 34311084. Particulars: cited from earlier work.
Series [2] has as its system L. major promastigote form. As to the kind of experiment: In vitro antileishmanial activity, promastigote form. The class given is cell-based, Leishmania major. The conditions noted are these: read-out: Antipromastigotes IC50, µM ± SD. The method, then: All synthesised compounds were evaluated against L. major promastigote form.
(§1) We used both promastigote and amastigote forms of L. major strain for the in vitro evaluation. All experimental steps were carried out as reported earlier[35]^,[36]. The value of the compound concentration causing 50% inhibition (IC50) was calculated. The software employed is Graph Pad Prism 6 software (GraphPad Software, San Diego, CA, USA).

Series [3] has as its system L. major axenic amastigote form. As to the kind of experiment: In vitro antileishmanial activity, axenic amastigote form. It is filed as cell-based, Leishmania major. The protocol: as §1
Series [4] in a line: In vitro cytotoxicity testing on VERO cells. Particulars: African green monkey.
Series [5] has as its system VERO cells. As to the kind of experiment: In vitro cytotoxicity testing on VERO cells. The conditions noted are these: for SI (selectivity index; SI = CC50/IC50): CC50 VERO cells / antileishmanial IC50; for CC50 (VERO cells) higher than IC50 (promastigotes): VERO cells versus promastigotes of leishmania parasite.
The test system of series [6] is L. major promastigote (folate pathway, DHFR and PTR1). As to the kind of experiment: Reversal of antileishmanial activity by folic acid and folinic acid (folate pathway inhibition). It is filed as cell-based, Leishmania major. The conditions noted are these: for Percentage survival, Folic acid 100 µM / Percentage survival, No Cpd added: test compound above its IC50 (trimethoprim 100 µM); for Percentage survival, No Cpd added: no folic or folinic acid; for Percentage survival, Folic acid 20µM: test compound above its IC50, folic acid 20µM; for Percentage survival, Folinic acid 20 µM: test compound above its IC50, folinic acid 20 µM; for Percentage survival, Folinic acid 100 µM: test compound above its IC50, folinic acid 100 µM. The protocol: It is worthy to mention that folic acid competes for the active sites of both DHFR and PTR1 while folinic acid involves in DNA synthesis without any necessity to undergo activation.
This experiment was performed on the in vitro growth assay for the promastigote and based on the previously published methodology. All experimental steps were performed as reported earlier.

Series [7] concerns promastigote. Set-up: method as in PMID 27503653. The conditions noted are these: read-out: Anti-promastigote EC50; cited from earlier work.
Series [8] relates to amastigote. The arrangement: method as in PMID 27503653. The conditions noted are these: read-out: Anti-amastigote EC50; cited from earlier work.
For series [9], the system named is bisubunit DNA topoisomerase IB of L. donovani. Set-up: method as in PMID 27503653. The conditions noted are these: cited from earlier work.
[10] abbreviates: Leishmania major, L. major promastigote, 50% growth inhibition.
[11] abbreviates: Leishmania major, L. major axenic amastigote, 50% growth inhibition, read-out: Antiamastigote IC50, µM ± SD.
The mark [12] stands for this setting: VERO cells (African green monkey kidney cells).
Where [13] appears, read: Leishmania major, read-out: Antiamastigote IC50, µM ± SD, L. major axenic amastigote, 50% growth inhibition.

`N#CC1=C(N)N(c2ccccc2)C2(CNC1c1ccccc1)CC(c1ccccc1)N(Cc1ccccc1)C(c1ccccc1)C2` (stereo not drawn) [Compound 7a, 8-Amino-3-benzyl-2,4,7,10-tetraphenyl-3,7,11-triazaspiro[5.6]dodec-8-ene-9-carbonitrile] gave a melting point above 300 °C.

With `CN(C)c1ccc(/C=N/N2C(=O)C(C#N)=CC23c2ccccc2Nc2ccccc23)cc1` [C], the “Antileishmanial EC50” value in series [1] is 0.97 µg/mL.

On to `CCCCCCCCCCCCCCCCOP(=O)([O-])OCC[N+](C)(C)C` [Miltefosine, reference compound], for which the half-maximal inhibitory concentration (IC50) was determined as 7.9 ± 0.28 µM in [2] (L. major promastigote, 50% growth inhibition); 7.89 µM in [2] (setting [10]); 8.08 ± 0.24 µM in series [3] (setting [11]). Also, the midpoint of cytotoxicity in series [4] (setting [12]), the CC50 at 72 h, lay at 99.7 µM. Further, in [5], the “SI (selectivity index; SI = CC50/IC50)” value turned out to be 12.6.

For the molecule `O=C1CNCC2(CC(c3ccccc3)N(Cc3ccccc3)C(c3ccccc3)C2)N1c1ccccc1` (stereo not drawn) [Compound 6a, 9-Benzyl-1,8,10-triphenyl-1,4,9-triazaspiro[5.5]undecan-2-one], the melting point is 150 to 153 °C. Moreover, the IC50 in [2] (Leishmania major) worked out at 4.42 ± 0.22 µM. Besides, the half-inhibitory concentration (IC50) in [3] (setting [13]) is 4.67 ± 0.16 µM.

With `O=C1NCC2(CC(c3ccccc3)N(Cc3ccccc3)C(c3ccccc3)C2)N1c1ccccc1` (stereo not drawn) [Compound 5a, 8-Benzyl-1,7,9-triphenyl-1,3,8-triazaspiro[4.5]decan-2-one], the melting point was in the range of 128 to 130 °C. In [2] (setting [10]), the IC50 was 5.4 ± 0.24 µM. For the same molecule, the IC50 in [3] (setting [11]) turned out to be 5.45 ± 0.22 µM.

With `N=C1N(c2ccccc2)C(=S)N(c2ccccc2)C12CC(c1ccccc1)N(Cc1ccccc1)C(c1ccccc1)C2` (stereo not drawn) [Compound 11b, 8-Benzyl-4-imino-1,3,7,9-tetraphenyl-1,3,8-triazaspiro[4.5]decane-2-thione], the melting point is 168 to 170 °C. For the same molecule, the concentration for half-maximal inhibition (IC50) in series [2] (setting [10]) was 3.27 ± 0.32 µM. Further, the IC50 in series [3] (setting [11]) came to 4.89 ± 0.34 µM.

`O=C1NC(=O)C2(CC(c3ccccc3)N(Cc3ccccc3)C(c3ccccc3)C2)N1c1ccccc1` (stereo not drawn) [Compound 8a, 8-Benzyl-1,7,9-triphenyl-1,3,8-triazaspiro[4.5]decane-2,4-dione] yielded a melting point of 188 to 190 °C. For the same molecule, the concentration for half-maximal inhibition (IC50) in series [2] (setting [10]) was found to be 1.12 ± 0.12 µM. Besides, in series [3] (Leishmania major, IC50 used for the selectivity index in Table 4, read-out: Antileishmanial IC50), the IC50 came out at 0.895 µM. For the same molecule, the IC50 in series [3] (setting [11]) came out at 0.89 µM. Also, in series [6], the “Percentage survival, Folic acid 100 µM” value was 81%; the “Percentage survival, No Cpd added” value is listed as 20%; the “Percentage survival, Folic acid 20µM” value amounted to 72%; the “Percentage survival, Folinic acid 20 µM” value is reported as 76%. Also, the “Percentage survival, Folinic acid 100 µM” value in [6] is on record as 87%. Moreover, the CC50 at 72 h in [4] (setting [12]) was 62.5 µg/mL and 128 µM. Further, in series [5], the “SI (selectivity index; SI = CC50/IC50)” value is given as 143.38 and the “CC50 (VERO cells) higher than IC50 (promastigotes)” value was “at least 2 orders of magnitude”.

Molecule `c1ccc(CN2C(c3ccccc3)CC3(CC2c2ccccc2)NCCN3)cc1` (stereo not drawn) [Compound 13, 8-Benzyl-7,9-diphenyl-1,4,8-triazaspiro[4.5]decane] showed a melting point of 209 to 211 °C. For the same molecule, the half-inhibitory concentration (IC50) in series [2] (setting [10]) is 1.34 ± 0.14 µM. For the same molecule, the IC50 in series [3] (setting [11]) worked out at 3.24 ± 0.22 µM.

In the case of `N=C1NNC2(CC(c3ccccc3)N(Cc3ccccc3)C(c3ccccc3)C2)S1` (stereo not drawn) [Compound 12, 8-Benzyl-7,9-diphenyl-4-thia-1,2,8-triazaspiro[4.5]decan-3-imine], the IC50 in [2] (setting [10]) was determined as 2.21 ± 0.22 µM; in [3] (setting [11]), 3.43 ± 0.14 µM.

As to `COC(=O)C1CC2CCCN2C12C(=O)N(Cc1ccccc1)c1ccccc12` (stereo not drawn) [B], the concentration for a half-maximal effect (EC50) in series [7] is 1.24 to 1.41 µM; in series [8], 0.53 to 0.9 µM. In addition, the “inhibition of bisubunit DNA topoisomerase IB” value in [9] is recorded as “catalytic inhibitor”.

With `COc1cc(Cc2cnc(N)nc2N)cc(OC)c1OC` [Trimethoprim, reference compound], in series [6], the “Percentage survival, Folic acid 100 µM” value is recorded as 99% and the “Percentage survival, No Cpd added” value is on record as 72%.

As for `O=C1CNC(=O)C2(CC(c3ccccc3)N(Cc3ccccc3)C(c3ccccc3)C2)N1c1ccccc1` (stereo not drawn) [Compound 9a, 9-Benzyl-1,8,10-triphenyl-1,4,9-triazaspiro[5.5]undecane-2,5-dione], the melting point was in the range of 201 to 203 °C. Moreover, the half-inhibitory concentration (IC50) in series [2] (Leishmania major) was 0.41 ± 0.04 µM. For the same molecule, in series [3] (setting [13]), the IC50 was 0.5 µM. The half-inhibitory concentration (IC50) in [3] (Leishmania major, read-out: Antileishmanial IC50 µM, IC50 used for the selectivity index in Table 4) is 0.501 µM. The concentration for half-maximal inhibition (IC50) in [3] (read-out: Antiamastigote IC50, µM ± SD, L. major axenic amastigote, 50% growth inhibition) amounted to 0.501 ± 0.16 µM. In addition, in series [6], the “Percentage survival, Folic acid 100 µM” value is 84%; the “Percentage survival, No Cpd added” value amounted to 26%; the “Percentage survival, Folic acid 20µM” value is reported as 76%; the “Percentage survival, Folinic acid 20 µM” value stood at 80%. Further, the “Percentage survival, Folinic acid 100 µM” value in [6] is 92%. Further, the half-maximal cytotoxic concentration (CC50) at 72 h in series [4] is 125 µg/mL and 249 µM. For the same molecule, in [5], the “SI (selectivity index; SI = CC50/IC50)” value was found to be 497.37 and the “CC50 (VERO cells) higher than IC50 (promastigotes)” value is reported as “at least 2 orders of magnitude”.

For the molecule `N=C1N(c2ccccc2)C(=O)N(c2ccccc2)C12CC(c1ccccc1)N(Cc1ccccc1)C(c1ccccc1)C2` (stereo not drawn) [Compound 11a, 8-Benzyl-4-imino-1,3,7,9-tetraphenyl-1,3,8-triazaspiro[4.5]decan-2-one], the melting point was in the range of 180 to 183 °C. Moreover, in series [2] (setting [10]), the half-inhibitory concentration (IC50) was 2.44 ± 0.22 µM. For the same molecule, the IC50 in [3] (setting [11]) came out at 4.87 ± 0.32 µM.

As a reminder, the melting point is the temperature of the solid-liquid transition. One may read the IC50 as the concentration that gives 50% inhibition. A word on the CC50: it is the concentration that lowers cell viability or growth by half. Broadly, the EC50 is the concentration needed to bring the measured effect to its halfway point.
